The text below walks through data of patent publication US9629822B2, “Flavonoid based antiviral targets” (UNIVERSITY OF CENTRAL FLORIDA RESEARCH FOUNDATION, INC., priority 2012, dated 2017).

In one data set the target is T1, US28 receptor (Human cytomegalovirus, UniProt P69332).
T1 construct: expressed in transfected cells; host or cells: HEK 293T cells, transiently transfected
As to the kind of experiment: PathDetect trans Elk1 luciferase reporter gene assay in US28-transfected 293T HEK cells. The format is cell-based, Human Cytomegalovirus (HCMV). The conditions noted are these: for EC50: 293T HEK cells transiently expressing US28, Elk1 reporter; for Emax: read-out: Efficacy(%), maximum intrinsic activity from dose-response curve; for Emax / Efficacy(%): negative = inverse agonism; for Efficacy(%): maximum intrinsic activity from dose-response curve; for type of activity on the US28 receptor (agonist / inverse agonist / none), in words: Elk1 reporter, US28-transfected HEK cells. The text has this:
Having generated a homologous series of chalcones and flavones, their ability to interact with the US28 receptor in human embryonic kidney (HEK) cells was investigated using an Elk-1 gene reporter assay (FIG. 2). HEK cells were transfected with either an empty vector (i.e., mock cells) or with a vector carrying US 28. These matched HEK cells provided a means to evaluate off-target effects as well as innate drug toxicity. As many of the flavonoid drugs were not water-soluble, all drug stock solutions were made in 100% dimethylsulfoxide (DMSO). The final DMSO concentration for each cell-based experiment, however, was 1% DMSO. To account for the presence of DMSO, 1% DMSO controls were run in parallel. […] values of the homologous series were also determined in Chinese hamster ovary (CHO) cells in order to assess the relative toxicities of each member of the series in a different cell line (see Table 1).
Interaction with the US28 receptor was measured by a decrease in luminescence using a firefly (Photinus pyralis) luciferase-based PathDetect Elk1 gene reporter assay (FIG. 2).^23,24 This assay assessed the modulation of US28-mediated activation of mitogen-activated protein kinase (MAPK) signaling pathways (results are shown in Table 1). […] Such compounds which reduce MAPK signaling will have direct utility in the treatment of proliferative disorders including but not limited cancer.
After transfection the US28 is expressed and activates MAPK. The MAPK phosphorylates the activator domain of the GAL4dbd/Elk1 fusion protein, and causes its dimerization. The dimer then binds to the GAL4 UAS region of the reporter gene and allows for luciferase transcription. The luciferase mRNA is then translated and the luciferase protein is detected via luminescence by the use of the Bright-Glo reagent.
(§1) The efficacy of each compound on the US28 receptor was investigated in luciferase based reporter gene assay PathDetect trans Elk1 (Agilent, Stratagene)^23 as described previously.^13 Briefly, the human embryonic kidney (HEK) 293T cells were transiently-transfected with 0.1 μg Elk1, 5 μg Luc, and 5 μg of US28 vector or empty pcDNA3 vector (mock cells). Five hours after transfection, the cells were washed with DMEM containing 1% FBS, harvested, seeded in a white half-area 96-well plate (20,000 cells/well) and incubated with the indicated concentrations of test compounds. The incubation buffer consisted of DMEM, 1% FBS, 2 mM L-glutamine, 1% penicillin-streptomycin and 1% DMSO. The cells were incubated at 37° C. in the humid atmosphere with 5% CO2 for an additional 20-24 hours. The luciferase substrate BrightGlo (Promega) was used according to the manufacturer's instruction. The luminescence intensity was acquired using microplate reader Victor3V (Perkin-Elmer). The basal luminescence of mock transfected cells was approximately 500 RLU and the basal luminescence of US28-transfected cells was 4-5-fold higher (2000-2500 RLU). As the inhibitors gave differential responses in terms of their ability to reduce US 28 mediated signaling, their relative EC50 values were determined by dosing the US-28 transfected HEK cells with increasing concentrations of each compound. In this case, the EC50 value is the concentration of the compound needed to provoke a response halfway between the compound's maximal response (change in luminescence) and the no-compound control in the same US-28 transfected cell line. A plot of relative luminescence versus log of the compound concentration provided a dose-response curve from which the % efficacy was derived via non-linear regression methods using the algorithms in PRISM 5.0 (GraphPad Software, San Diego, Calif.).
(In general: A reporter such as luciferase makes a cellular process visible.)

The test system of data set [1] is mock transfected 293T HEK cells. Description: PathDetect Elk1 luminescence in mock transfected (empty pcDNA3 vector) 293T HEK cells, off-target effect. It is filed as cell-based, human. The following applies: 10 μM vs 1% DMSO control, Equation 1; for activation at 10 µM: Homo sapiens, read-out: Effect(%) on mock cells with each drug at 10 μM. On the procedure: As a control, the empty pcDNA3 plasmid vector and the components of PathDetect system were also used for mock transfection of 293T HEK cells. Controls containing 1% DMSO were run in parallel. The relative luminescence results found with mock transfected 293T HEK cells treated with 10 μM drug and the untreated 1% DMSO control were compared via the following Equation 1. % Effect on mock cells=(100%×(mock cell luminescence/DMSO control luminescence))−100% Equation (1)
This equation was derived in order to assess the net effect each compound had on non-US28 containing HEK cells transfected via the same protocol. These control experiments were critical as they provided a method to address off target effects such as compound toxicity, which could give rise to false positives in the PathDetect assay.
Compounds, which had no off-target effects, gave nearly identical luminescence values in both the mock cells and the 1% DMSO control (i.e., a mock cell luminescence/DMSO control luminescence ratio of 1) and a net effect of 0% via Equation 1 (e.g., 9j: 0% in Table 1). In contrast, compounds that were stimulatory to the treated HEK cells gave higher mock cell luminescence than the DMSO control, a ratio >1, and a net positive value in Equation 1 for the % effect on mock cells (e.g., 8f: 290%). On the other hand, compounds that were intrinsically toxic gave lower luminescence in the treated mock cells than the DMSO control, a ratio below 1, and a net negative value for the % effect on mock cells (e.g., 8d: ˜42%).
as §1

The test system of another data set is CHO cells. As to the kind of experiment: CHO cell toxicity, MTS assay, 48 h. It is filed as cell-based, Chinese hamster. The conditions noted are these: Cricetulus griseus, CHO, 37° C., MTS reagent, read-out: CHO 48 h IC50 value. On the procedure: In each case, the chalcone system 8 was more toxic than the corresponding ring-closed system, 9.
The CHO assay was conducted to assess the general toxicity of each flavonoid drug. Briefly, cell growth was assayed in sterile 96-well microtiter plates (Costar 3599, Corning, N.Y., USA) in the presence of each drug. Experiments were conducted in triplicate. CHO cells were plated at 10,000 cells/mL. Drug solutions were prepared in 100% DMSO and dosed so that the final DMSO concentration was <1%. For example, 1 μL of drug solution was added to the CHO cells plated in each well in 100 μL of media. Drug additions occurred after an initial overnight incubation of CHO cells in each well. After drug was added, the cells were incubated in 5% CO2 for 48 h at 37° C. The MTS reagent (Promega Cell Titer 96 Aqueous non-radioactive cell proliferation reagent) was added (20 μL) and the CHO cells were incubated for an additional 4h and then absorbance at 490 nm was measured on a BioTek Synergy MX plate reader. […] IC50 values were determined from the corresponding plot of relative absorbance at 490 nm vs drug concentration.
(Tetrazolium dyes change colour on reduction, which living cells bring about.)

Data set [2] can be described thus: TZMbI assay for cell safety (cell viability and growth, CytoTox Glo). The following applies: human, TZMbI cells, 10 μM, Experiment 1A; read-out: % decrease in viability compared to 0.1% DMSO vehicle based on viable cell luminescence. As for the experimental part:
Assays were performed below in accordance with the procedures set forth in The Journal of Immunology, 2006, 176, pp. 6900-905; AIDS Research and Human Retroviruses, 2004, 20:11, pp. 1157-1665.^32,33 TZMbI assays for cell safety were performed to identify potential anti-viral compounds. TZMbI assays for cell safety were performed to identify potential anti-viral compounds per the methods.

A further data set has as its system HIV-1 BaL. Description: Anti-HIV assay (luciferase, HIV-1 BaL infection). The format is cell-based. The following applies: 10 μM, Experiment 1B, 2 ng/mL p24 HIV-1 BaL; for inhibition at 10 µM: Human immunodeficiency virus 1, BAL. As for the experimental part: Assays were performed below in accordance with the procedures set forth in The Journal of Immunology, 2006, 176, pp. 6900-905; AIDS Research and Human Retroviruses, 2004, 20:11, pp. 1157-1665.^32,33 Cells were treated with 2 ng/mL p24 of HIV-1 BaL administered; MOI approx 0.02 (see refs 32, 33). Cells were treated with 2 ng/mL p24 of HIV-1 BaL administered; MOI approx 0.02 (see refs 32, 33).

The mark [3] stands for this setting: EC50 (μM), NE = no effect when tested at 10 μM of compound.
Setting [4] is: NE = no effect when tested at 10 μM of compound.

T1 sequence (P69332 whole entry): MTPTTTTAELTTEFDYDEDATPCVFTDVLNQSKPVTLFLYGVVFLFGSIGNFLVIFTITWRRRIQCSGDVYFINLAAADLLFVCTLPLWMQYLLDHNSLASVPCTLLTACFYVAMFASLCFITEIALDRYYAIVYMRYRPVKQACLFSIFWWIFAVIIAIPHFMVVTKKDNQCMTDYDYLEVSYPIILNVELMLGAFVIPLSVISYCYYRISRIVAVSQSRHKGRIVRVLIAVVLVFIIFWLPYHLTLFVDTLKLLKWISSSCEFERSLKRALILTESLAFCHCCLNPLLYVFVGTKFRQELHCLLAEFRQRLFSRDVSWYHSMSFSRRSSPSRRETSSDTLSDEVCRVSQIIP

A word on the EC50: it is the concentration at which the effect is half-maximal. Read a low EC50 as higher potency in that assay. By IC50 is commonly meant the concentration at which inhibition is half-maximal. A word on the inhibition: it is how much of the control response was suppressed. Consider `CCOc1ccc(Br)cc1/C=C/C(=O)c1ccccc1O` [Compound 8c, (E)-3-(5-bromo-2-ethoxyphenyl)-1-(2-hydroxyphenyl)prop-2-en-1-one], for which the EC50 at US28 receptor (setting [3]) amounted to 5 µM. In addition, on US28 receptor, the Emax was approximately 88%. Further, in data set [1], the activation at 10 µM was -3%. For the same compound, in the data set with CHO cells, the half-inhibitory concentration (IC50) is 7.2 ± 0.5 µM. In data set [2], the cytotoxicity at 10 μM was 53.3%. In addition, in the data set on HIV-1 BaL, the “RLU (relative luciferase units)” value is given as 112.3 RLU and the inhibition at 10 µM came out at 88.1%.

By melting point is commonly meant the temperature, or range, at which the solid turns liquid. Consider `COc1cc(Br)cc(/C=C/C(=O)c2ccccc2O)c1OC` [Compound 8d, (E)-3-(5-bromo-2,3-dimethoxyphenyl)-1-(2-hydroxyphenyl)prop-2-en-1-one], for which the melting point lay within 122 to 124 °C. Also, the midpoint of the response at US28 receptor (setting [3]), the EC50, lay at 6.7 µM. In addition, at US28 receptor, the “Efficacy(%)” value is approximately 52% and the Emax was approximately 52%. This compound had an EC50 at US28 receptor (pEC50 ± SEM) of 6.61 µM. Further, the IC50 in the data set with CHO cells was determined as 7.2 ± 0.4 µM. Besides, the cytotoxicity at 10 μM in data set [2] is 72.9%. In the data set on HIV-1 BaL, the “RLU (relative luciferase units)” value is listed as 134.6 RLU and testing at 10 µM gave an inhibition of 85.8%.

With `COc1ccc(Br)cc1/C=C/C(=O)c1c(O)cccc1OC` [Compound 8f, (E)-3-(5-bromo-2-methoxyphenyl)-1-(2-hydroxy-6-methoxyphenyl)prop-2-en-1-one], the response on US28 receptor (setting [3]) was half-maximal at 6 µM (EC50). For the same compound, on US28 receptor, the “Efficacy(%)” value was approximately 95% and the Emax is approximately 95%. In data set [1], the “Effect(%) on mock cells with each drug at 10 μM” value is on record as 290% and the activation at 10 µM amounted to 290%. In the data set on CHO cells, the IC50 is 6.1 ± 0.8 µM. Further, the cytotoxicity at 10 μM in data set [2] stood at 91.3%. Moreover, in the data set on HIV-1 BaL, the “RLU (relative luciferase units)” value is given as 45.9 RLU and at 10 µM the inhibition was 95.1%.

For the compound `COc1ccc(Cl)cc1/C=C/C(=O)c1ccccc1O` [Compound 8h, (E)-3-(5-chloro-2-methoxyphenyl)-1-(2-hydroxyphenyl)prop-2-en-1-one], the melting point is 81 to 82 °C. This compound also displayed an EC50 at US28 receptor (setting [3]) of 7.8 µM. Moreover, on US28 receptor, the “Efficacy(%)” value is on record as approximately 58% and the Emax is approximately 58%. In addition, in the data set on CHO cells, the IC50 amounted to 8.4 ± 0.6 µM. In addition, in data set [2], the cytotoxicity at 10 μM is 98.9%. Also, in the data set on HIV-1 BaL, the “RLU (relative luciferase units)” value worked out at 33.8 RLU and 10 µM produced 96.4% inhibition.

On US28 receptor (setting [4]), `COc1ccccc1-c1cc(=O)c2ccccc2o1` [Compound 11c, 2-(2-Methoxyphenyl)-4H-chromen-4-one] returned an EC50 of more than 10 µM. For the same compound, on US28 receptor (setting [3]), the EC50 is more than 10 µM. In addition, at US28 receptor, the “type of activity on the US28 receptor (agonist / inverse agonist / none), in words” value is “inactive ligand”. Moreover, the activation at 10 µM in data set [1] came to 3%. The IC50 with CHO cells was found to be 64.8 ± 8.1 µM. In addition, the cytotoxicity at 10 μM in data set [2] was 39.5%. Further, in the data set with HIV-1 BaL, the “RLU (relative luciferase units)” value came out at 235.6 RLU and the inhibition at 10 µM was determined as 74.8%.

With `COc1ccc(Br)cc1C1CC(=O)c2ccccc2O1` (stereo not shown) [Compound 13b, 2-(5-Bromo-2-methoxyphenyl)chroman-4-one], the EC50 on US28 receptor (setting [4]) is more than 10 µM. For the same compound, at US28 receptor (setting [3]), the EC50 is more than 10 µM. On US28 receptor, the “type of activity on the US28 receptor (agonist / inverse agonist / none), in words” value is listed as “did not have any significant effect”. Moreover, the activation at 10 µM in data set [1] was -5%. In addition, the IC50 in the data set with CHO cells stood at 67.9 ± 9.3 µM. Further, the cytotoxicity at 10 μM in data set [2] is -9.1%. In the data set with HIV-1 BaL, the “RLU (relative luciferase units)” value is recorded as 884.5 RLU and the inhibition at 10 µM was determined as 2.8%.
